According to the NIST ThermoML archive (doi:10.1021/je2001446):
“And” between values parts separate entries of the source, which are not always exact repeats. Equal entries are not always repeated. ± gives the expanded uncertainty stated by the source.

What was measured:
[1] = Crystal
[2] = Molar enthalpy of transition or fusion; conditions: Crystal

Compound	Normal melting temperature [1]	Molar enthalpy of transition or fusion [2] [kcal/mol]
CCCCCCCCCCCCCC[n+]1cccc(C)c1.[Cl-] [1-tetradecyl-3-methylpyridinium chloride]	93.7 ± 0.8 °C and 94.6 ± 2.5 °C	10.2 ± 0.813
CCCCCCCCCC[n+]1cccc(C)c1.[Cl-] [1-decyl-3-methylpyridinium chloride]	79.4 ± 0.8 °C and 75.6 ± 2.5 °C	3.44 ± 0.741
CCCCCCCCCCCCCCCCCC[n+]1cccc(C)c1.[Cl-] [3-methyl-1-octadecylpyridinium chloride]	112.2 ± 0.8 °C and 113 ± 2.5 °C	6.72 ± 0.765
CCCCCCCC[n+]1cccc(C)c1.[Cl-] [1-octyl-3-methylpyridinium chloride]	80.1 ± 0.8 °C and 79.2 ± 2.5 °C	3.56 ± 0.741
CCCC[n+]1cccc(C)c1.[Cl-] [1-butyl-3-methylpyridinium chloride]	111.4 ± 0.8 °C and 109.8 ± 2.5 °C	6.57 ± 0.765
CCCCCC[n+]1cccc(C)c1.[Cl-] [1-hexyl-3-methylpyridinium chloride]	82.0 ± 0.8 °C and 80 ± 2.5 °C	4.71 ± 0.741
CCCCCCCCCCCCCCCC[n+]1cccc(C)c1.[Cl-] [1-hexadecyl-3-methylpyridinium chloride]	110 ± 0.8 °C and 110.0 ± 2.5 °C	9.63 ± 0.813
CCCCCCCCCCCC[n+]1cccc(C)c1.[Cl-] [1-dodecyl-3-methylpyridinium chloride]	87.7 ± 0.8 °C and 86.8 ± 2.5 °C	8.87 ± 0.789
